According to US6737383B1, “Herbicidal oxadiazolidines” (priority 1999, dated 2004):

Assays:
[1] = system: sugar beet; assay: Test B pre/postemergence sugar beet; format: in vivo, Beta vulgaris
Procedure, shortened: (§1)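 Herbicidal effect was estimated by eye on a ten-point control scale after plants spent twelve to sixteen days in a greenhouse following soil or foliar treatment. Foliar sprays targeted plants at one to four leaves; all doses were formulated in a non-phytotoxic solvent with surfactant.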

[2] = system: morningglory; assay: Test B pre/postemergence morningglory; format: in vivo, Ipomoea hederacea
Procedure, shortened: as §1

[3] = system: soybean; assay: Test B pre/postemergence soybean; format: in vivo, Glycine max
Procedure, shortened: as §1

[4] = system: pigweed; assay: Test B pre/postemergence pigweed; format: in vivo, Amaranthus retroflexus
Procedure, shortened: as §1

[5] = system: smallflower flatsedge; assay: Test B flood test smallflower flatsedge; format: in vivo, Cyperus difformis
Procedure, shortened: (§2)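 Read-out is a visual response score from 0 (no effect) to 10 (complete control), assigned by comparison with untreated controls. Treatment was applied at the 2-leaf stage, and plants stayed in the greenhouse for twelve to sixteen days before scoring.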

[6] = system: velvetleaf; assay: Test B pre/postemergence velvetleaf; format: in vivo, Abutilon theophrasti
Procedure, shortened: as §1

[7] = system: cocklebur; assay: Test B pre/postemergence cocklebur; format: in vivo, Xanthium strumarium
Procedure, shortened: as §1

[8] = system: blackgrass; assay: Test B pre/postemergence blackgrass; format: in vivo, Alopecurus myosuroides
Procedure, shortened: as §1

[9] = system: rape; assay: Test B pre/postemergence rape; format: in vivo, Brassica napus
Procedure, shortened: as §1

[10] = system: rice; assay: Test B flood test rice; format: in vivo, Oryza sativa
Procedure, shortened: as §2

[11] = system: crabgrass; assay: Test B pre/postemergence crabgrass; format: in vivo, Digitaria sanguinalis
Procedure, shortened: as §1

[12] = system: corn; assay: Test B pre/postemergence corn; format: in vivo, Zea mays
Procedure, shortened: as §1

[13] = system: duck salad; assay: Test B flood test duck salad; format: in vivo, Heteranthera limosa
Procedure, shortened: as §2

[14] = system: wheat; assay: Test B pre/postemergence wheat; format: in vivo, Triticum aestivum
Procedure, shortened: as §1

[15] = system: purple nutsedge; assay: Test B pre/postemergence purple nutsedge; format: in vivo, Cyperus rotundus
Procedure, shortened: as §1

[16] = system: giant foxtail; assay: Test B pre/postemergence giant foxtail; format: in vivo, Setaria faberii
Procedure, shortened: as §1

[17] = Postemergence, Rate 31 g/ha, visual rating, scale 0 to 10 (0 no effect, 10 complete control)
[18] = Preemergence, Rate 31 g/ha, visual rating, scale 0 to 10 (0 no effect, 10 complete control)
[19] = Preemergence, Rate 62 g/ha, scale of 0 to 10 where 0 is no effect and 10 is complete control
[20] = Rate 16 g/ha, Postemergence, scale 0 to 10, 0 no effect, 10 complete control
[21] = Rate 16 g/ha, Preemergence, scale 0 to 10, 0 no effect, 10 complete control
[22] = Rate 62 g/ha, Postemergence, scale 0 to 10 (0 no effect, 10 complete control)
[23] = Rate 125 g/ha, Postemergence, scale of 0 to 10 where 0 is no effect and 10 is complete control
[24] = Rate 125 g/ha, Preemergence, scale of 0 to 10 where 0 is no effect and 10 is complete control
[25] = Rate 16 g/ha, head printed Pre-emergence (flood test species), scale 0 to 10, 0 no effect, 10 complete control
[26] = Rate 31 g/ha, Pre-emergence section (flood test species), scale 0 to 10
[27] = Rate 62 g/ha, headed Pre-emergence (flood test species), scale 0 to 10 (0 no effect, 10 complete control)
[28] = Rate 125 g/ha, Pre-emergence, flood test species, scale 0 to 10 where 0 is no effect and 10 is complete control
[29] = Rate 250 g/ha, Pre-emergence, flood-test species, scale 0 to 10, 0 is no effect, 10 is complete control
[30] = Rate 500 g/ha, Pre-emergence, flood test species, scale 0 to 10 (0 no effect, 10 complete control)

## CCCCCn1c(=O)on(C(=O)N(c2ccc(F)cc2)C(C)C)c1=O [Compound 290]
[1]; [17]
  Sugarbeets plant response rating: 0
[1]; [18]
  Sugarbeets plant response rating: 0
[1]; [19]
  Sugarbeets plant response rating: 2
[1]; [20]
  Sugarbeets plant response rating: 0
[1]; [21]
  Sugarbeets plant response rating: 0
[1]; [22]
  Sugarbeets plant response rating: 0
[1]; [23]
  Sugarbeets plant response rating: 0
[1]; [24]
  Sugarbeets plant response rating: 5
[2]; [17]
  Morningglory plant response rating: 4
[2]; [18]
  Morningglory plant response rating: 0
[2]; [19]
  Morningglory plant response rating: 0
[2]; [20]
  Morningglory plant response rating: 3
[2]; [21]
  Morningglory plant response rating: 0
[2]; [22]
  Morningglory plant response rating: 4
[2]; [23]
  Morningglory plant response rating: 6
[2]; [24]
  Morningglory plant response rating: 0
[3]; [17]
  Soybean plant response rating: 1
[3]; [18]
  Soybean plant response rating: 0
[3]; [19]
  Soybean plant response rating: 0
[3]; [20]
  Soybean plant response rating: 1
[3]; [21]
  Soybean plant response rating: 0
[3]; [22]
  Soybean plant response rating: 2
[3]; [23]
  Soybean plant response rating: 2
[3]; [24]
  Soybean plant response rating: 0
[4]; [17]
  Redroot pigweed plant response rating: 0
[4]; [18]
  Redroot pigweed plant response rating: 0
[4]; [19]
  Redroot pigweed plant response rating: 2
[4]; [20]
  Redroot pigweed plant response rating: 0
[4]; [21]
  Redroot pigweed plant response rating: 0
[4]; [22]
  Redroot pigweed plant response rating: 0
[4]; [23]
  Redroot pigweed plant response rating: 0
[4]; [24]
  Redroot pigweed plant response rating: 7
[5]; [25]
  S. Flatsedge plant response rating: 0
[5]; [26]
  S. Flatsedge plant response rating: 0
[5]; [27]
  S. Flatsedge plant response rating: 0
[5]; [28]
  S. Flatsedge plant response rating: 2
[5]; [29]
  S. Flatsedge plant response rating: 0
[5]; [30]
  S. Flatsedge plant response rating: 0
[6]; [17]
  Velvetleaf plant response rating: 0
[6]; [18]
  Velvetleaf plant response rating: 0
[6]; [19]
  Velvetleaf plant response rating: 0
[6]; [20]
  Velvetleaf plant response rating: 0
[6]; [21]
  Velvetleaf plant response rating: 0
[6]; [22]
  Velvetleaf plant response rating: 0
[6]; [23]
  Velvetleaf plant response rating: 0
[6]; [24]
  Velvetleaf plant response rating: 0
[7]; [17]
  Cocklebur plant response rating: 0
[7]; [18]
  Cocklebur plant response rating: 0
[7]; [19]
  Cocklebur plant response rating: 0
[7]; [20]
  Cocklebur plant response rating: 0
[7]; [21]
  Cocklebur plant response rating: 0
[7]; [22]
  Cocklebur plant response rating: 0
[7]; [23]
  Cocklebur plant response rating: 0
[7]; [24]
  Cocklebur plant response rating: 0
[8]; [17]
  Blackgrass plant response rating: 0
[8]; [18]
  Blackgrass plant response rating: 0
[8]; [19]
  Blackgrass plant response rating: 2
[8]; [20]
  Blackgrass plant response rating: 0
[8]; [21]
  Blackgrass plant response rating: 0
[8]; [22]
  Blackgrass plant response rating: 0
[8]; [23]
  Blackgrass plant response rating: 0
[8]; [24]
  Blackgrass plant response rating: 2
[9]; [17]
  Rape plant response rating: 0
[9]; [18]
  Rape plant response rating: 0
[9]; [19]
  Rape plant response rating: 0
[9]; [20]
  Rape plant response rating: 0
[9]; [21]
  Rape plant response rating: 0
[9]; [22]
  Rape plant response rating: 0
[9]; [23]
  Rape plant response rating: 0
[9]; [24]
  Rape plant response rating: 0
[10]; [25]
  Rice plant response rating: 0
[10]; [26]
  Rice plant response rating: 0
[10]; [27]
  Rice plant response rating: 0
[10]; [28]
  Rice plant response rating: 0
[10]; [29]
  Rice plant response rating: 0
[10]; [30]
  Rice plant response rating: 0
[11]; [17]
  Crabgrass plant response rating: 0
[11]; [18]
  Crabgrass plant response rating: 0
[11]; [19]
  Crabgrass plant response rating: 1
[11]; [20]
  Crabgrass plant response rating: 0
[11]; [21]
  Crabgrass plant response rating: 0
[11]; [22]
  Crabgrass plant response rating: 0
[11]; [23]
  Crabgrass plant response rating: 0
[11]; [24]
  Crabgrass plant response rating: 3
[12]; [17]
  Corn plant response rating: 0
[12]; [18]
  Corn plant response rating: 0
[12]; [19]
  Corn plant response rating: 0
[12]; [20]
  Corn plant response rating: 0
[12]; [21]
  Corn plant response rating: 0
[12]; [22]
  Corn plant response rating: 0
[12]; [23]
  Corn plant response rating: 0
[12]; [24]
  Corn plant response rating: 0
[13]; [25]
  Ducksalad plant response rating: 0
[13]; [26]
  Ducksalad plant response rating: 0
[13]; [27]
  Ducksalad plant response rating: 0
[13]; [28]
  Ducksalad plant response rating: 0
[13]; [29]
  Ducksalad plant response rating: 0
[13]; [30]
  Ducksalad plant response rating: 0
[14]; [17]
  Wheat plant response rating: 0
[14]; [18]
  Wheat plant response rating: 0
[14]; [19]
  Wheat plant response rating: 0
[14]; [20]
  Wheat plant response rating: 0
[14]; [21]
  Wheat plant response rating: 0
[14]; [22]
  Wheat plant response rating: 0
[14]; [23]
  Wheat plant response rating: 0
[14]; [24]
  Wheat plant response rating: 0
[15]; [17]
  Nutsedge plant response rating: 0
[15]; [18]
  Nutsedge plant response rating: 0
[15]; [19]
  Nutsedge plant response rating: 0
[15]; [20]
  Nutsedge plant response rating: 0
[15]; [21]
  Nutsedge plant response rating: 0
[15]; [22]
  Nutsedge plant response rating: 0
[15]; [23]
  Nutsedge plant response rating: 0
[16]; [17]
  Giant foxtail plant response rating: 0
[16]; [18]
  Giant foxtail plant response rating: 2
[16]; [19]
  Giant foxtail plant response rating: 8
[16]; [20]
  Giant foxtail plant response rating: 0
[16]; [21]
  Giant foxtail plant response rating: 2
[16]; [22]
  Giant foxtail plant response rating: 0
[16]; [23]
  Giant foxtail plant response rating: 0
[16]; [24]
  Giant foxtail plant response rating: 9
